Converted amounts (≈) assume the structure as drawn. “Also recorded” adds a separate entry of the source. Where two headings read alike, the source gives them in different places.
What was measured:
Enterococcus faecalis = test: REMA MIC; type: cell-based
[1] = tested on: Corynebacterium glutamicum; test: REMA MIC; type: cell-based
[2] = tested on: Corynebacterium diphtheriae; test: REMA MIC; type: cell-based
Mtb-H37Rv = type: in vivo, BALB/c mice; conditions: 300 mg/kg twice a day for 9 days, vs vehicle TPGS, FIG. 4
HepG2 = type: cell-based, human
Source text: (§1) Cytotoxicity of LPZS on THP1 macrophages, human liver hepatoma cells (HuH7-D12), human lung epithelial carcinoma cells (A549) and human embryonic liver cells (HepG2) (Table 5).

Pseudomonas putida = test: REMA MIC; type: cell-based
[3] = doses as high as 300 mg/kg twice a day
[4] = tested on: Mycobacterium tuberculosis Erdman; test: REMA MIC; type: cell-based
Mycobacterium avium = test: REMA MIC; type: cell-based
Listeria monocytogenes = test: REMA MIC; type: cell-based
THP-1 = type: cell-based
Source text: as §1

Mtb H37Rv = test: microbe, parasite or virus in culture; type: cell-based, Mycobacterium tuberculosis; conditions: for IC50: Mycobacterium tuberculosis, H37RV
human proton pump = human proton pump (Homo sapiens, UniProt P20648); conditions: cited from earlier work
[5] = tested on: Mycobacterium vaccae ATCC 15483; test: REMA MIC; type: cell-based; conditions: Mycolicibacterium vaccae, ATCC15483
Escherichia coli = test: REMA MIC; type: cell-based
Mtb strains = test: MIC, summary statement for Mtb strains; type: cell-based; conditions: Mycobacterium tuberculosis; Mtb strains such as H37Rv, Erdman and HN878 (Table 3)
Candida albicans = test: REMA MIC; type: cell-based
[6] = tested on: Mycobacterium tuberculosis HN878 (Beijing strain); test: REMA MIC; type: cell-based
[7] = set-up: species or system BALB/c mice; conditions: BALB/c, mouse, in vivo, 0.5 h
Procedure: For pharmacokinetic studies BALB/c mice (18-20 g) were given 100 mg/kg or 300 mg/kg LPZS in 20% TPGS (D-α tocopheryl polyethylene glycol 1000 succinate). At given time-points, blood from 3 mice was taken and, after spinning, serum was treated with acetonitrile (1:4 ratio). After a second spin, supernatants were frozen for LC/MS experiments.
BALB/c mice were given 100 mg/kg or 300 mg/kg of LPZS by oral gavage and serum levels were determined after 0.5, 1, 2, 4, 8 and 24 hours (FIG. 5).

Micrococcus Luteus = test: REMA MIC; type: cell-based
[8] = tested on: Mycobacterium tuberculosis H37Rv; test: REMA MIC; type: cell-based
[9] = tested on: intracellular Mtb-GFP (Mtb-Erdman) in MRC-5 fibroblasts; test: microbe, parasite or virus in culture; type: cell-based, Mycobacterium tuberculosis; conditions: for IC50: Mycobacterium tuberculosis, ERDMAN, MRC5; for activity in ex vivo assay: intracellular (ex vivo) assay
[10] = tested on: Mycobacterium bolletii 1999-0888; test: REMA MIC; type: cell-based; conditions: Mycobacteroides abscessus, 19990888
non-Mtb strains = test: MIC, summary statement for non-Mtb strains; type: cell-based; conditions: other non-Mtb strains such as Mycobacterium abcessus 2005-0524 or Escherichia coli
Mycobacterium marinum M = test: REMA MIC; type: cell-based
Staphylococcus aureus = test: REMA MIC; type: cell-based
[11] = tested on: Mycobacterium smegmatis mc2155; test: microbe, parasite or virus in culture; type: cell-based; conditions: Mycolicibacterium smegmatis
Bacillus subtilis = test: REMA MIC; type: cell-based
[12] = tested on: Mycobacterium massiliense 2005-0484; test: REMA MIC; type: cell-based; conditions: Mycobacteroides abscessus, 20050484
Salmonella typhimurium = test: REMA MIC; type: cell-based; conditions: Salmonella enterica
Pseudomonas aeruginosa = test: REMA MIC; type: cell-based
[13] = tested on: Mycobacterium abcessus 2005-0524; test: REMA MIC; type: cell-based; conditions: 20050524
[14] = tested on: Mtb-Erdman infected MRC-5 human lung fibroblasts; test: Fibroblast survival assay (HTS): protection of MRC-5 lung fibroblasts from Mtb-induced cytotoxicity; type: cell-based, Mycobacterium tuberculosis; conditions: for activity in fibroblast survival assay: concentrations up to 50 μM, FIG. 1
[15] = tested on: intracellular Mtb-GFP in RAW264.7 macrophages; test: microbe, parasite or virus in culture; type: cell-based; conditions: Mycobacterium tuberculosis, FIG. 2B, read-out: IC50 (growth of intracellular bacteria)
[16] = Intracellular drug quantification in MRC-5 cells (LC/MS); type: in vitro ADME, human; conditions: MRC-5 cells exposed to 2 μM, 48 hours
Procedure: For intracellular drug quantification, 20000 MRC-5 cells were seeded in 96 well plates and exposed to 2 μM of LPZ. At given time-points, cells were extensively washed with PBS and lysed with 0.1% Triton X-100 in PBS and acetonitrile (1:1 ratio). After spinning at 15,000 g at 4° C., samples were shock frozen in liquid nitrogen and stored at −80° C. for MS.
Quantification in 7H9 broth was performed with 500 nM of LPZ, acetonitrile was added in a 1:1 ratio at given time-points followed by spinning and shock freezing. The UPLC separation was done on an Agilent 1290 Infinity LC system including the 1290 Infinity LC system Binary Pump with integrated degasser, the High Performance Autosampler and a thermostatted column compartment. The samples (2 μL) were injected into a Zorbax Extend-C18 (2.1×50 mm, 1.8 μm) analytical column operated at 40° C., using H2O—HCOOH 0.1% and CH3CN—HCOOH 0.1% as mobile phases A and B (2 to 100% B in 5 min) at a flow rate of 0.4 mL/min. The UPLC system was interfaced with a 6530 Accurate-Mass Q-TOF LC/MS system (Agilent Technologies). Electrospray-ionisation MS data were acquired in the positive ionization mode, in the mass range m/z 100-1000 (2 spectra/s). […]
The intracellular LPZ and possible metabolites were quantified at different time-points over a period of 48 hours using LC/MS.

[17] = Drug quantification in 7H9 broth (LC/MS); type: physicochemical; conditions: 500 nM, 48 hours, FIG. 3C
Procedure: Quantification in 7H9 broth was performed with 500 nM of LPZ, acetonitrile was added in a 1:1 ratio at given time-points followed by spinning and shock freezing. The UPLC separation was done on an Agilent 1290 Infinity LC system including the 1290 Infinity LC system Binary Pump with integrated degasser, the High Performance Autosampler and a thermostatted column compartment. The samples (2 μL) were injected into a Zorbax Extend-C18 (2.1×50 mm, 1.8 μm) analytical column operated at 40° C., using H2O—HCOOH 0.1% and CH3CN—HCOOH 0.1% as mobile phases A and B (2 to 100% B in 5 min) at a flow rate of 0.4 mL/min. The UPLC system was interfaced with a 6530 Accurate-Mass Q-TOF LC/MS system (Agilent Technologies). Electrospray-ionisation MS data were acquired in the positive ionization mode, in the mass range m/z 100-1000 (2 spectra/s). Experimental parameters were set as follows: Fragmentor: 190V, Vcap: 3500 V, gas temperature: 300° C., sheath gas temperature: 350° C. External calibration was carried out with a solution of ESI_L (Agilent). Data were processed using MassHunter.
In mycobacterial growth medium, the results were markedly different. A rapid decay of LPZ was also observed confirming the instability of this drug. However, though LPZS was detectable in increasing amounts over time, it was not the major product of LPZ decay (FIG. 3C). […]

[18] = table values in μM or words, read-out: IC50 against Mtb in broth
[19] = table values in μM or words, read-out: IC50 intracellular

Sequence of human proton pump (P20648 whole entry): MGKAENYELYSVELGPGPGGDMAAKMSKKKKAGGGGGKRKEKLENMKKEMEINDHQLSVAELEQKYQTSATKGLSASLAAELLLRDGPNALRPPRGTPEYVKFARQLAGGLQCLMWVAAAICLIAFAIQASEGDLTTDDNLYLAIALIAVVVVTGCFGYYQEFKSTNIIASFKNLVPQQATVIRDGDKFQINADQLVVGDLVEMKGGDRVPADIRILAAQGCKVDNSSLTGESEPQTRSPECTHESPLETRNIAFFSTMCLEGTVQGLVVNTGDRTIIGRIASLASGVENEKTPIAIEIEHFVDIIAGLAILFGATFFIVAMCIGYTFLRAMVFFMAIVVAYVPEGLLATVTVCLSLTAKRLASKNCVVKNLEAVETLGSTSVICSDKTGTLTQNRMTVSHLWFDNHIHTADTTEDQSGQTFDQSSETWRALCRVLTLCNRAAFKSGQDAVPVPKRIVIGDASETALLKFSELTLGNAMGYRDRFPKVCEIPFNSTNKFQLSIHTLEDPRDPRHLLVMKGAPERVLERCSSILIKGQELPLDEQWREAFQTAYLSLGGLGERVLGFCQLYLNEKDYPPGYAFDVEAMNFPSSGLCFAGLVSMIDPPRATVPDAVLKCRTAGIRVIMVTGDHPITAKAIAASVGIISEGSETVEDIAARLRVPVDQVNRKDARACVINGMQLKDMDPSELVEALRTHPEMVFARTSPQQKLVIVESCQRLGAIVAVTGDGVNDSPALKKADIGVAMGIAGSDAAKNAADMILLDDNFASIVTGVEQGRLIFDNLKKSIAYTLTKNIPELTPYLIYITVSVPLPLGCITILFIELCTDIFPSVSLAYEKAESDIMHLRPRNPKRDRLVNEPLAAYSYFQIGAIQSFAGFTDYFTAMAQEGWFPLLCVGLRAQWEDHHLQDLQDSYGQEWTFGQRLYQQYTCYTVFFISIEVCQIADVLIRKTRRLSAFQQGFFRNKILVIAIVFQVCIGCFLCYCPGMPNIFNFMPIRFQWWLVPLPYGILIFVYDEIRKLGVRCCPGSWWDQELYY
Sequence of human proton pump (P51164 whole entry partner): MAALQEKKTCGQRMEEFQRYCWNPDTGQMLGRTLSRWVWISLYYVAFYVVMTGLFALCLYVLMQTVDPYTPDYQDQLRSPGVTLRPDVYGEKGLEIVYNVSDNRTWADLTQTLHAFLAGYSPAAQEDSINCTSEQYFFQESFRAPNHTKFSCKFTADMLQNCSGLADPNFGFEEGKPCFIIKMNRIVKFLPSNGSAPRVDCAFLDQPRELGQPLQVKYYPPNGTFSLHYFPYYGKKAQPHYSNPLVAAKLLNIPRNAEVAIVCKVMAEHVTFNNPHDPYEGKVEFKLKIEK

## Cc1c(OCC(F)(F)F)ccnc1CSc1nc2ccccc2[nH]1 [LPZS, Lanzoprazole sulfide]
Enterococcus faecalis
  MIC: > 100 µM
[1]
  MIC: > 100 µM
[2]
  MIC: > 100 µM
Mtb-H37Rv
  bacterial burden (cfu) in the lungs: significantly reduced
HepG2
  TD50: 25 µM
  TD99: 100 µM
Pseudomonas putida
  MIC: > 100 µM
[3]
  signs of toxicity in mice: no signs of toxicity
[4]
  MIC: 1.21 µM (≈ 0.428 µg/mL)
Mycobacterium avium
  MIC: > 100 µM
Listeria monocytogenes
  MIC: > 100 µM
THP-1
  TD50: 75 µM
  TD99: >100 µM
Mtb H37Rv; read-out: IC50 (Mtb in broth)
  IC50: 460 nM
Mtb H37Rv; table values in nM, read-out: IC50 against Mtb in broth
  IC50: 460 nM
Human proton pump
  activity towards the human proton pump: no activity
[5]
  MIC: > 100 µM
Escherichia coli
  MIC: > 100 µM
Mtb strains
  MIC: < 2 µM
Candida albicans
  MIC: > 100 µM
[6]
  MIC: 1.74 µM (≈ 0.615 µg/mL)
[7]
  concentration in blood relative to Cmax: 100 % of Cmax
Micrococcus Luteus
  MIC: > 100 µM
[8]
  MIC: 1.13 µM (≈ 0.399 µg/mL)
[9]; read-out: IC50 (intracellular activity)
  IC50: 590 nM
[9]; table values in nM, read-out: IC50 intracellular
  IC50: 590 nM
[10]
  MIC: > 100 µM
non-Mtb strains
  MIC: > 100 µM
Mycobacterium marinum M
  MIC: 100 µM (≈ 35.3 µg/mL)
Staphylococcus aureus
  MIC: > 100 µM
[11]
  MIC: > 100 µM
Bacillus subtilis
  MIC: > 100 µM
[12]
  MIC: > 100 µM
Salmonella typhimurium
  MIC: > 100 µM
Pseudomonas aeruginosa
  MIC: > 100 µM
[13]
  MIC: > 100 µM

## Cc1c(OCC(F)(F)F)ccnc1CS(=O)(=O)c1nc2ccccc2[nH]1
Mtb H37Rv; table values in μM or words
  IC50 against Mtb in broth: Inactive
[9]; table values in μM or words
  IC50 intracellular: Inactive

## FC(F)(F)Oc1ccc(C2CCN(c3ccc(CSc4nc5ccccc5[nH]4)cc3)CC2)cc1
Mtb H37Rv; [18]
  IC50: ~48000 nM

## COCCCOc1ccnc(CSc2nc3ccccc3[nH]2)c1C [Rabeprazole sulfide]
Mtb H37Rv; read-out: IC50 (Mtb in broth)
  IC50: 5000 nM
Mtb H37Rv; [18]
  IC50: 5000 nM
[9]; [19]
  IC50: 3000 nM

## COCCCOc1ccnc(C[S+]([O-])c2nc3ccccc3[nH]2)c1C (stereo not shown) [Rabeprazole sodium]
Mtb H37Rv; read-out: IC50 (Mtb in broth)
  IC50: 25000 nM
Mtb H37Rv; read-out: IC50 (inhibit Mtb)
  IC50: < 40000 nM
Mtb H37Rv; [18]
  IC50: 25000 nM
[9]; [19]
  IC50: 6000 nM

## Cc1c(SCCN2CCc3ccccc3C2)ccnc1CSc1nc2ccccc2[nH]1
Mtb H37Rv; [18]
  IC50: 2700 nM

## Cc1c(OCC(F)(F)F)ccnc1C[S+]([O-])c1nc2ccccc2[nH]1 (stereo not shown) [R-Lansoprazole]
Mtb H37Rv; read-out: IC50 (inhibit Mtb)
  IC50: < 40000 nM
Mtb H37Rv; [18]
  IC50: 32800 nM
[9]; [19]
  IC50: 1470 nM

## COc1ccc2[nH]c([S+]([O-])Cc3ncc(C)c(OC)c3C)nc2c1 (stereo not shown) [drawing 26]
Mtb H37Rv; table values in μM or words
  IC50 against Mtb in broth: Inactive
[9]; table values in μM or words
  IC50 intracellular: Inactive

## COc1ccnc(C[S+]([O-])c2nc3ccc(OC(F)F)cc3[nH]2)c1OC (stereo not shown) [Pantoprazole]
[14]
  activity in fibroblast survival assay: inactive
Mtb H37Rv
  activity in in vitro assay: inactive
[9]
  activity in ex vivo assay: inactive

## COc1ccc2[nH]c(SCc3ncc(C)cc3C)nc2c1
Mtb H37Rv; table values in μM or words
  IC50 against Mtb in broth: inactive
[9]; table values in μM or words
  IC50 intracellular: inactive

## Cc1c(Cl)ccnc1CSc1nc2ccccc2[nH]1 [4-Desmethoxypropoxyl-4-chloro rabebrazole sulfide]
Mtb H37Rv; read-out: IC50 (Mtb in broth)
  IC50: 6000 to 12000 nM
Mtb H37Rv; [18]
  IC50: 6000 to 12000 nM
[9]; [19]
  IC50: 6000 nM

## 5-hydroxy Lansoprazole potassium
Mtb H37Rv
  activity in in vitro assay: inactive
[9]
  activity in ex vivo assay: inactive

## COc1ccc2[nH]c([S+]([O-])Cc3ncc(C)c(OC)c3C)nc2c1 (stereo not shown) [Omeprazole]
[14]
  activity in fibroblast survival assay: inactive
Mtb H37Rv
  activity in in vitro assay: inactive
[9]
  activity in ex vivo assay: inactive

## Cc1c(OCC(F)(F)F)ccnc1C[S+]([O-])c1nc2ccccc2[nH]1 (racemic) [LPZ, (RS)-2-([3-méthyl-4-(2,2,2-trifluoroéthoxy)pyridin-2-yl]méthylsulfinyl)-1H-benzimidazole]
[14]
  fibroblast survival / protection against Mtb induced killing: supported fibroblast survival at rates comparable to well established anti-mycobacterial drugs such as Rifampicin and Moxifloxacine; also recorded: inhibits the growth of Mtb as well as Rifampicin or Moxifloxacine
Mtb H37Rv; read-out: IC50 (Mtb in broth)
  IC50: 32800 nM
Mtb H37Rv; read-out: IC50 (inhibit Mtb)
  IC50: < 40000 nM
Mtb H37Rv; [18]
  IC50: 32800 nM
[15]
  IC50: 2.2 µM
[9]; MRC-5 cells, FIG. 2A, read-out: IC50 (Mtb-GFP signal)
  IC50: 1470 nM
[9]; [19]
  IC50: 1470 nM
[16]
  intracellular decay: rapid intracellular decay
[17]
  decay in mycobacterial growth medium: rapid decay

## COc1ccnc(C[S+]([O-])c2nc3cc(OC(F)F)ccc3[nH]2)c1OC.[Na+] (stereo not shown)
Mtb H37Rv; table values in μM or words
  IC50 against Mtb in broth: Inactive
[9]; table values in μM or words
  IC50 intracellular: Inactive
